The source of these data is patent US20260306460A1, “COMPOSITION FOR REMOVING AND INHIBITING SENESCENT CELLS, AND USES THEREOF” (LIFECEUTIX CO., LTD., priority 2023, published 2026).

Entries after “also recorded” stand apart in the source; their conditions may differ.

The first test has as its system senescent foreskin cells. Put plainly: Survival of senescent human cells treated with supernatant (secreted fluid) from death-induced cells, Example 13. The test is classed as cell-based. The conditions noted are these: supernatants from proliferating and senescent death-induced cells.
Description: After 3 days, cell viability was measured using CellTiter-Glo Luminescent Cell Viability Assay (Promega) or light microscopy.
During this additional culture, by checking with an optical microscope, etc., the medium supernatants containing secreted fluid from normally proliferating and senescent cells in which cell death was induced were obtained. The obtained medium supernatant was replaced with the medium of normally proliferating and senescent cells, respectively, and cell survival rate was measured after 3 days.
Turning to `O=c1c2ccccc2[se]n1CCn1[se]c2ccccc2c1=O` [LX-112, 1,2-[bis(1,2-benzisoselenazolone-3 (2H)-ketone)]ethane], the “death of senescent cells by medium supernatant” value is reported as “selectively induced the death of senescent cells; also recorded: same results”.

The next test deals with senescent A549 cells. The experiment in a line: Viability of senescent A549 cells (CellTiter-Glo), Example 18, Table 15. The conditions noted are these: Homo sapiens, A549, read-out: Survival (%).
Description: Senescence-induced cancer cells treated with doxorubicin were treated with the test compound at designated concentrations, and cell viability was measured using the CellTiter-Glo Luminescent Cell Viability Assay (Promega).
Consider `C=C(C)[C@@H]1CC[C@]2(C)CC[C@]3(C)[C@H](CC[C@@H]4[C@@]5(C)CC[C@H](O)C(C)(C)[C@@H]5CC[C@]43C)[C@@H]12` [LX-5433, Lupeol], for which the viability at 1.1 µM was found to be 97.8%, the viability at 10 µM is 76.5%, the viability at 30 µM was determined as 64.7% and the viability at 90 µM came out at 19.3%.

The next test deals with naturally aged C57BL6J mice.
Experiment: not given
The test is classed as in vivo, mouse. The conditions noted are these: mouse, in vivo.
Turning to `C[C@@H]1C(=O)[C@]2(C#N)O[C@@H]2[C@]2(C)C3=CC(=O)[C@@H]4[C@@H]5CC(C)(C)CC[C@]5(NC(=O)C(C)(F)F)CC[C@@]4(C)[C@]3(C)CC[C@@H]12` [LX-2319], the wound/damage healing improvement entry is “damage treatment and recovery”.
With `C[C@]12C=C(C#N)C(=O)C3(CC=CC3)C1=CC[C@@H]1[C@@H]2CC[C@]2(C)C(=O)CC[C@@H]12` [LX-2308], the wound/damage healing improvement result was “damage treatment and recovery”.
On the same count and under the same terms, as for `C[C@@H]1C(=O)C(C#N)=C[C@]2(c3ccccc3)c3c(c(-c4cccnc4)nn3C)CC[C@@H]12` [LX-2407, (5aS,6S,9aR)-1,6-dimethyl-7-oxo-9a-phenyl-3-(pyridin-3-yl)-4,5,5a,6,7,9a-hexahydro-1H-benzo[g]indazole-8-carbonitrile], the entry is “damage treatment and recovery”.
The same measure, in the same setting: as for `CCC[C@H]1C(=O)C(C#N)=C[C@@]2(C)c3nc(-c4cccc5ncccc45)nc(-c4ccccc4F)c3CC[C@H]12` [LX-2503], the entry is “damage treatment and recovery”; as for `COC(=O)C[C@]12CCC(C)(C)C[C@H]1[C@H]1C(=O)C[C@@H]3[C@@]4(C)C=C(C#N)C(=O)C(C)(C)[C@@H]4CC[C@@]3(C)[C@]1(C)CC2` [LX-2307], “damage treatment and recovery”.
Turning to `CC1(C)CC[C@]2(NS(C)(=O)=O)CC[C@]3(C)[C@H](C(=O)C[C@@H]4[C@@]5(C)C=C(C#N)C(=O)C(C)(C)[C@@H]5CC[C@]43C)[C@@H]2C1` [LX-2306], the wound/damage healing improvement entry was “damage treatment and recovery”.
For `CC1(C)CC[C@]2(C(N)=O)CC[C@@]3(C)[C@]4(C)CC[C@H]5C(C)(C)C(=O)C(C#N)=C[C@]5(C)C4=CC(=O)[C@]3(O)[C@@H]2C1` [LX-2406], the wound/damage healing improvement result is “damage treatment and recovery”.
Still for that read-out and setting: as for `CNC(=O)CC[C@]12CCC(C)(C)C[C@H]1[C@H]1C(=O)C=C3[C@@]4(C)C=C(C#N)C(=O)C(C)(C)[C@@H]4CC[C@@]3(C)[C@]1(C)CC2` [LX-2403], the entry is “damage treatment and recovery”; as for `COC(=O)[C@@]1(C)CC[C@]2(C)CC[C@]3(C)[C@H](C(=O)C=C4[C@@]5(C)C=C(C#N)C(=O)C(C)(C)C5CC[C@]43C)[C@@H]2C1` (stereo partly drawn) [LX-2513, Soloxolone methyl], “damage treatment and recovery”.
As for `C=C(C)[C@@H]1CC[C@]2(C(=O)NCC)CC[C@]3(C)[C@H](CCC4[C@@]5(C)C=C(C#N)C(=O)C(C)(C)[C@@H]5CC[C@]43C)[C@@H]12` (stereo partly drawn) [LX-2311], the wound/damage healing improvement entry is “damage treatment and recovery”.
Same read-out and setting: as for `CC1(C)CC[C@]2(c3nc(CO)no3)CC[C@]3(C)[C@H](C(=O)C=C4[C@@]5(C)C=C(C#N)C(=O)C(C)(C)[C@@H]5CC[C@]43C)[C@@H]2C1` [LX-2508], the entry is “damage treatment and recovery”.
Still for that read-out and setting: in the case of `CONC(=O)[C@]12CCC(C)(C)C[C@H]1[C@H]1C(=O)C=C3[C@@]4(C)C=C(C#N)C(=O)C(C)(C)[C@@H]4CC[C@@]3(C)[C@]1(C)CC2` [LX-2310] it was “damage treatment and recovery”.
Still for that read-out and setting: as for `CC1(C)C(=O)C(C#N)=C[C@]2(C)C3=CC(=O)[C@@H]4[C@@H]5C[C@@](C)(C(=O)NCCc6c[nH]c7ccccc67)CC[C@]5(C)CC[C@@]4(C)[C@]3(C)CCC12` (stereo partly drawn) [LX-2517, Soloxolone tryptamide], the entry is “damage treatment and recovery”; as for `CCC[C@H]1C(=O)C(C#N)=C[C@@]2(C)c3nc(-c4cccc5ccccc45)nc(-c4ccccc4F)c3CC[C@H]12` [LX-2502], “damage treatment and recovery”.
As for `CC1(C)CC[C@]2(CO)CC[C@]3(C)[C@H](C(=O)C=C4[C@@]5(C)[C@H]6O[C@@]6(C#N)C(=O)C(C)(C)[C@@H]5CC[C@]43C)[C@@H]2C1` [LX-2318], the wound/damage healing improvement result is “damage treatment and recovery”.
Same read-out and setting: as for `Cc1noc([C@]23CCC(C)(C)C[C@H]2[C@H]2C(=O)C=C4[C@@]5(C)C=C(C#N)C(=O)C(C)(C)[C@@H]5CC[C@@]4(C)[C@]2(C)CC3)n1` [LX-2401], the entry is “damage treatment and recovery”; as for `C[C@@H]1[C@H]2[C@H]3C(=O)C=C4[C@@]5(C)C=C(C#N)C(=O)C(C)(C)[C@@H]5CC[C@@]4(C)[C@]3(C)CC[C@@]2(CO)CC[C@H]1C` [LX-2512], “damage treatment and recovery”; as for `CC1(C)CC[C@]2(C(=O)NCC(F)(F)F)CC[C@]3(C)[C@H](C(=O)C[C@@H]4[C@@]5(C)C=C(C#N)C(=O)C(C)(C)[C@@H]5CC[C@]43C)[C@@H]2C1` [LX-2302, Dihydro-CDDO-Trifluoroethyl Amide], “damage treatment and recovery”.
`C[C@@H]1C(=O)C(C#N)=C[C@]2(C)c3nn(C)c(-c4ccccc4)c3CC[C@@H]12` [LX-2312]: the wound/damage healing improvement entry was “damage treatment and recovery”.
On the same count and under the same terms, in the case of `CC1(C)CC[C@]2(C(=O)NO)CC[C@]3(C)[C@H](C(=O)C[C@@H]4[C@@]5(C)C=C(C#N)C(=O)C(C)(C)[C@@H]5CC[C@]43C)[C@@H]2C1` [LX-2309] it was “damage treatment and recovery”; in that of `CC(O)[C@]1(C)C(=O)C(C#N)=C[C@]2(C)C3=CC(=O)[C@]45OC(=O)[C@@]6(CCC(C)(C)C[C@H]64)CC[C@@]5(C)[C@]3(C)CC[C@@H]12` (stereo partly drawn) [LX-2501], “damage treatment and recovery”.
Regarding `C[C@@H]1C(=O)C(C#N)=C[C@]2(C)C3=CC(=O)[C@@H]4[C@@H]5CC(C)(C)CC[C@]5(CO)CC[C@@]4(C)[C@]3(C)CC[C@@H]12` [LX-2317], the wound/damage healing improvement result was “damage treatment and recovery”.
Same read-out and setting: as for `C=CC(=O)NC[C@]12CCC(C)(C)C[C@H]1[C@H]1C(=O)C=C3[C@@]4(C)C=C(C#N)C(=O)C(C)(C)[C@@H]4CC[C@@]3(C)[C@]1(C)CC2` [LX-2509], the entry is “damage treatment and recovery”; as for `C[C@H]1C(=O)C(C#N)=C[C@@]2(C)c3c(c(-c4ccccc4)nn3-c3ccc(-c4cccc(CO)c4)cc3)CC[C@H]12` [LX-2505], “damage treatment and recovery”; as for `COC(=O)[C@]12CCC(C)(C)C[C@H]1[C@H]1C(=O)C=C3[C@@]4(C)C=C(C#N)C(=O)[C@@H](C)[C@@H]4CC[C@@]3(C)[C@]1(C)CC2` [LX-2316], “damage treatment and recovery”.
Turning to `CCC(=O)NC[C@]12CCC(C)(C)C[C@H]1[C@H]1C(=O)C=C3[C@@]4(C)C=C(C#N)C(=O)C(C)(C)[C@@H]4CC[C@@]3(C)[C@]1(C)CC2` [LX-2510], the wound/damage healing improvement result was “damage treatment and recovery”.
On to `COC(=O)[C@]12CCC(C)(C)C[C@H]1[C@H]1C(=O)C[C@@H]3[C@@]4(C)C=C(C#N)C(=O)C(C)(C)[C@@H]4CC[C@@]3(C)[C@]1(C)CC2` [LX-2301], for which the wound/damage healing improvement entry is “damage treatment and recovery”.
Still for that read-out and setting: as for `C=C(C)[C@@H]1CC[C@]2(C)CC[C@]3(C)[C@H](CC[C@@H]4[C@@]5(C)CC[C@H](O)C(C)(C)[C@@H]5CC[C@]43C)[C@@H]12` [LX-5433, Lupeol], the entry is “damage treatment and recovery”; as for `C[C@@H]1C(=O)C(C#N)=C[C@]2(C)C3=CC(=O)[C@@H]4[C@@H]5CC(C)(C)CC[C@]5(c5nnc(CF)o5)CC[C@@]4(C)[C@]3(C)CC[C@@H]12` [LX-2507], “damage treatment and recovery”.
As to `CCNC(=O)CC[C@]12CCC(C)(C)C[C@H]1[C@H]1C(=O)C=C3[C@@]4(C)C=C(C#N)C(=O)C(C)(C)[C@@H]4CC[C@@]3(C)[C@]1(C)CC2` [LX-2402], the wound/damage healing improvement entry was “damage treatment and recovery”.
Still for that read-out and setting: as for `C[C@@H]1C(=O)C(C#N)=C[C@]2(C)c3nc(CCO)n(-c4ccccc4)c3CC[C@@H]12` [LX-2409], the entry is “damage treatment and recovery”; as for `Cc1cc(-c2ccc(-n3nc(-c4ccccc4F)c4c3[C@]3(C)C=C(C#N)C(=O)[C@H](C)[C@H]3CC4)cc2)cnn1` [LX-2506], “damage treatment and recovery”.
Regarding `CC1(C)CC[C@]2(CO)CC[C@@]3(C)[C@]4(C)CC[C@H]5C(C)(C)C(=O)C(C#N)=C[C@]5(C)C4=CC(=O)[C@]3(O)C2C1` (stereo partly drawn) [LX-2405], the wound/damage healing improvement entry was “damage treatment and recovery”.
For the molecule `C[C@@H]1[C@H]2[C@H]3C(=O)C=C4[C@@]5(C)C=C(C#N)C(=O)C(C)(C)[C@@H]5CC[C@@]4(C)[C@]3(C)CC[C@@]2(c2nc(CCO)no2)CC[C@H]1C` [LX-2511], the wound/damage healing improvement result was “damage treatment and recovery”.
`COc1nc(-c2cccnc2)nc2c1CC[C@H]1[C@H](C)C(=O)C(C#N)=C[C@]21C` [LX-2315]: the wound/damage healing improvement entry is “damage treatment and recovery”.
Same read-out and setting: as for `C[C@@H]1C(=O)C(C#N)=C[C@]2(c3ccccc3)c3c(c(-c4cncnc4)nn3C)CC[C@@H]12` [LX-2408], the entry is “damage treatment and recovery”.

Another test concerns senescent cells. The experiment in a line: Viability of senescent cells (CellTiter-Glo), Example 17, Table 13. The conditions noted are these: Homo sapiens, read-out: Survival (%). In general terms: In ATP-based viability assays light output follows the ATP content of the culture.
Description: Cells induced to undergo senescence by doxorubicin treatment were treated with test compound at designated concentrations and measured using the CellTiter-Glo Luminescent Cell Viability Assay (Promega).
For `C=C(C)[C@@H]1CC[C@]2(C)CC[C@]3(C)[C@H](CC[C@@H]4[C@@]5(C)CC[C@H](O)C(C)(C)[C@@H]5CC[C@]43C)[C@@H]12` [LX-5433, Lupeol], the viability at 1.1 µM amounted to 108%, the viability at 10 µM stood at 71.1%, the viability at 30 µM came to 51.8% and the viability at 90 µM came to 2.4%.
